Results: publication PMC10150354, “Linearization of the Brevicidine and Laterocidine Lipopeptides Yields Analogues That Retain Full Antibacterial Activity” (Journal of Medicinal Chemistry, 2023)
Values after ≈ are worked out from the molar mass of the structure shown. Where a SMILES comes first, the peptide text is derived from it. [ ]: non-standard residue; d: D form. The star is where a group is joined. Octanoyl(7-Me) = CC(C)CCCCCC(=O)*; dOrn = NCCC[C@@H](N)C(=O)O; Orn = NCCC[C@H](N)C(=O)O; OAll = C=CCO*

Key:
[1] = system: S. aureus USA300; type: cell-based, Staphylococcus aureus; conditions: microbroth dilution per CLSI, MHB, 18 h at 37 °C, visual inspection, three technical replicates
Outline: (§1)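 CLSI broth microdilution in MHB, polypropylene plates; log-phase bacteria (OD600 ~0.5, grown in TSB, with kanamycin for the E. coli ATCC 25922 MCR-1 strain) added at 2 × 10^5 CFU/mL. Read visually after 18 h at 37 °C with shaking; MIC = lowest concentration preventing visible growth, three technical replicates.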

[2] = system: P. aeruginosa PAO1; type: cell-based, Pseudomonas aeruginosa; conditions: microbroth dilution per CLSI, MHB, 18 h at 37 °C, visual inspection, three technical replicates
Outline: as §1

[3] = system: K. pneumoniae ATCC 13883; type: cell-based, Klebsiella pneumoniae; conditions: microbroth dilution per CLSI, MHB, 18 h at 37 °C, visual inspection, three technical replicates
Outline: as §1

[4] = system: E. coli ATCC 25922; type: cell-based, Escherichia coli; conditions: for MIC (µg/mL) against E. coli (ATCC 25922): (Supplement 2); for Antibacterial activity (MIC) E. coli ATCC 25922: microbroth dilution per CLSI, MHB, 18 h at 37 °C, visual inspection, three technical replicates
Outline: as §1

[5] = system: E. coli (MCR-1); type: cell-based, Escherichia coli; conditions: microbroth dilution per CLSI, MHB, 18 h at 37 °C, visual inspection, three technical replicates, E. coli 25922 carrying mcr-1
Outline: as §1

[6] = system: A. baumannii ATCC 17961; type: cell-based, Acinetobacter baumannii; conditions: microbroth dilution per CLSI, MHB, 18 h at 37 °C, visual inspection, three technical replicates
Outline: as §1

Compound	Antibacterial activity (MIC) S. aureus USA300 [1]	Antibacterial activity (MIC) P. aeruginosa PAO1 [2]	Antibacterial activity (MIC) K. pneumoniae ATCC 13883 [3]	MIC (µg/mL) against E. coli (ATCC 25922) [4]	Antibacterial activity (MIC) E. coli ATCC 25922 [4]	Antibacterial activity (MIC) E. coli (MCR-1) [5]	Antibacterial activity (MIC) A. baumannii ATCC 17961 [6]
CC[C@H](C)[C@H](NC(=O)[C@H](CCSC)NC(=O)[C@H](Cc1c[nH]c2ccccc12)NC(=O)[C@@H](CCCN)NC(=O)CNC(=O)[C@H](CCCN)NC(=O)[C@@H](CCCN)NC(=O)[C@@H](Cc1c[nH]c2ccccc12)NC(=O)[C@@H](Cc1ccc(O)cc1)NC(=O)[C@@H](CO)NC(=O)CCCCCC(C)C)C(=O)N[C@@H](CC(N)=O)C(=O)NCC(=O)NCC(N)=O [LL(Met9)-NH2 (44)] ({Octanoyl(7-Me)}-[dS][dY][dW][dOrn][Orn]G[dOrn]WMINGG-NH2)	>32 µg/mL	4 µg/mL	4 µg/mL	4 µg/mL (≈ 2.42 µM)	4 µg/mL	4 µg/mL	4 µg/mL
CC[C@H](C)[C@H](NC(=O)[C@@H](NC(=O)[C@H](Cc1c[nH]c2ccccc12)NC(=O)[C@@H](C)NC(=O)CNC(=O)[C@H](CCCN)NC(=O)[C@@H](CCCN)NC(=O)[C@@H](Cc1c[nH]c2ccccc12)NC(=O)[C@@H](Cc1ccc(O)cc1)NC(=O)[C@@H](CO)NC(=O)CCCCCC(C)C)[C@@H](C)O)C(=O)N[C@@H](CC(N)=O)C(=O)NCC(=O)NCC(N)=O [LL(D-Ala7)-NH2 (35)] ({Octanoyl(7-Me)}-[dS][dY][dW][dOrn][Orn]G[dA]WTINGG-NH2)	>32 µg/mL	32 µg/mL	>32 µg/mL		>32 µg/mL	>32 µg/mL	32 µg/mL
C=CCOC(=O)CC[C@H](NC(=O)[C@H](Cc1c[nH]c2ccccc12)NC(=O)[C@@H](CCCN)NC(=O)CNC(=O)[C@H](CCCN)NC(=O)[C@@H](CCCN)NC(=O)[C@@H](Cc1c[nH]c2ccccc12)NC(=O)[C@@H](Cc1ccc(O)cc1)NC(=O)[C@@H](CO)NC(=O)CCCCCC(C)C)C(=O)N[C@H](C(=O)N[C@@H](CC(N)=O)C(=O)NCC(=O)NCC(N)=O)[C@@H](C)CC [LL(Glu[OAll]9)-NH2 (51)] ({Octanoyl(7-Me)}-[dS][dY][dW][dOrn][Orn]G[dOrn]WE(OAll)INGG-NH2)	>32 µg/mL	>32 µg/mL	>32 µg/mL	16 µg/mL (≈ 9.47 µM)	16 µg/mL	16 µg/mL	16 µg/mL
CC(C)CCCCCC(=O)N[C@H](CO)C(=O)N[C@H](Cc1ccc(O)cc1)C(=O)N[C@H](Cc1c[nH]c2ccccc12)C(=O)N[C@H](CCCN)C(=O)N[C@@H](CCCN)C(=O)NCC(=O)N[C@H](CCCN)C(=O)N[C@@H](Cc1c[nH]c2ccccc12)C(=O)N[C@H](C(N)=O)[C@@H](C)O [Δ10–13LL-NH2 (14)] ({Octanoyl(7-Me)}-[dS][dY][dW][dOrn][Orn]G[dOrn]WT-NH2)	>32 µg/mL	>32 µg/mL	>32 µg/mL		>32 µg/mL	32 µg/mL	32 µg/mL
CC[C@H](C)[C@H](NC(=O)[C@H](CCC(N)=O)NC(=O)[C@H](Cc1c[nH]c2ccccc12)NC(=O)[C@@H](CCCN)NC(=O)CNC(=O)[C@H](CCCN)NC(=O)[C@@H](CCCN)NC(=O)[C@@H](Cc1c[nH]c2ccccc12)NC(=O)[C@@H](Cc1ccc(O)cc1)NC(=O)[C@@H](CO)NC(=O)CCCCCC(C)C)C(=O)N[C@@H](CC(N)=O)C(=O)NCC(=O)NCC(N)=O [LL(Gln9)-NH2 (48)] ({Octanoyl(7-Me)}-[dS][dY][dW][dOrn][Orn]G[dOrn]WQINGG-NH2)	>32 µg/mL	4 µg/mL	4 µg/mL	4 µg/mL (≈ 2.43 µM)	4 µg/mL	8 µg/mL	8 µg/mL
CC[C@H](C)[C@H](NC(=O)[C@@H](NC(=O)[C@H](Cc1c[nH]c2ccccc12)NC(=O)[C@@H](CCCN)NC(=O)CNC(=O)[C@H](CCCN)NC(=O)[C@@H](CCCN)NC(=O)[C@@H](Cc1c[nH]c2ccccc12)NC(=O)[C@@H](Cc1ccc(O)cc1)NC(=O)[C@@H](CO)NC(=O)CCCCCC(C)C)[C@@H](C)O)C(N)=O [Δ11–13LL-NH2 (12)] ({Octanoyl(7-Me)}-[dS][dY][dW][dOrn][Orn]G[dOrn]WTI-NH2)	32 µg/mL	4 µg/mL	2 µg/mL		4 µg/mL	4 µg/mL	4 µg/mL
